# Measurements from US4415495A, “5,6;8,9-Tetrahydro-7H-dibenz(d,f)azonines” (Godecke Aktiengesellschaft, priority 1981, dated 1983).
# Key:
# [1] = system: Rats with calcium chloride induced arrhythmias; experiment: Calcium chloride induced arrhythmias in narcotised rats (prophylactic i.v. administration); format: in vivo; settings: for average period of arrhythmia: control 10.9 min.
# Description: By means of the intravenous infusion of a calcium chloride solution, […] induced in narcotised rats which, after termination of the infusion, continue for a certain period of time (modification of the method described by Malinow et al., Arch. Int. Pharmacodyn, 102, 266/1955). This arrhythmic phase is shortened by the prophylactic administration of antiarrhythmic drugs. […] The results of the experiments with calcium chloride induced arrhythmias on rats are summarized in the following Table I. The average period of arrhythmia is calculated from experiments with at least 10 animals.
# [2] = system: guinea pig left ventricle; experiment: Refractory time of electrically stimulated guinea pig left ventricles (organ bath)
# Description: The left ventricles of guinea pig hearts are electrically stimulated in an organ bath, the amplitude of contraction being recorded. By means of a second stimulus, the time is determined below which the heart muscle no longer reacts with a separately resolvable contraction. This time is defined as the refractory time.
# The following Table II contains information concerning the maximum tested compound concentrations, as well as the average prolongation of the refractory time measured at this concentration in comparison with the initial value of, in each case, at least 6 experiments.
# rabbit eye = experiment: Local anesthetic action on the rabbit eye (corneal reflex); format: in vivo, rabbits; settings: for Period of Action: observation discontinued after 60 minutes
# Description: The corneal reflex is induced in rabbits using a horse hair which bends with a pressure of about 250 mg (modification of the method described by M. von Frey, Beitrage zur Physiologie des Schmerzsinns, Vehr. d. Kgl. Sachs, Ges. d. Wiss. zu Leipzig, Math.-phys. Kl., 46, 185/1894; Untersuchungen uber die Sinnesfunktionen der menschlichen Haut, Leipzig, 1896). After instillation of local anesthetics into the conjunctival sac of the eye, the number of impacts with the horse hair which result in closure of the eyelid is increased. At intervals of 4 minutes, in each case a maximum of 100 successive impacts are carried out and such an action is taken as being 100%. The period of investigation is at most 60 minutes. The action of the compounds according to the present invention is compared with that of tetracaine and procainamide.
# The following Table VII contains the results of the experiments on the rabbit eye. There are also given, in addition to the concentrations of the test solutions which were instilled into the conjunctival sac, the actions of the compounds in % (see description of the method), as well as their period of action. In each case, the observations were discontinued after 60 minutes.
# in vivo = settings: mouse, po
# Description: The compounds according to the present invention are administered intragastrally to male mice (NMRI) with a body weight of from 20 to 25 g. Each dosage group consists of 4 animals. The LD50 values are determined after having observed the animals for 7 days.
# [3] = system: dogs with coronary ligature; experiment: Coronary ligature on dogs (period of sinus rhythm from ECG); format: in vivo
# Description: Using narcotised dogs, after thoracotomy, a coronary artery (side branch of the R. interventr. post. or of the R. circumflexus) is ligatured (see. A. S. Harris, Circulation, 1, 1318/1950). The heart rhythm disturbances which occur as a result thereof are, on the day following the operation, recorded on the awake animals and treated with the compounds according to the present invention by intragastral and intravenous administration. Procainamide is used as a positive standard. From the ECG, the time is determined in which, after administration of the test compound, a sinus rhythm can be recognized.
# The compounds of Examples 1 (Table III), 4 (Table IV) and 10 (Table V) were tested on dogs with a coronary ligature. All the compounds were, in each case, tested on at least 5 animals.
# [4] = Oryctolagus cuniculus, topical, concentration 1.0 %
# [5] = Oryctolagus cuniculus, topical, concentration 0.1 %
# [6] = Oryctolagus cuniculus, topical, concentration 0.5 %
# [7] = Oryctolagus cuniculus, topical, concentration 2.0 %
smiles,measurement,setting,value
"COc1ccc2c(c1)-c1c(ccc(OC)c1OC)CC(Cc1ccccc1)N(C)CC2 (racemic) [Example 5, (±)-6-Benzyl-7-methyl-5,6;8,9-tetrahydro-1,2,12-trimethoxy-7H-dibenz(d,f)azonine]",average period of arrhythmia,[1]; 5 mg/kg I.V.,4.1 min
same,average prolongation of the refractory time,[2]; 4.0 × 10^-6 g/ml in the bath,25 ms
same,inhibition in vivo at 1 %,rabbit eye; [4],100%
same,Period of Action,rabbit eye; concentration 1.0 %,> 60 min
same,LD50 at 168 h,in vivo,~1000 mg/kg
"COc1ccc2c(c1)-c1c(ccc(OC)c1O)CC(CCc1ccccc1)N(C)CC2 (single isomer, unassigned; (+)) [Example 10, (+)-2,12-Dimethoxy-1-hydroxy-7-methyl-6-phenethyl-5,6;8,9-tetrahydro-7H-dibenz(d,f)azonine]",average period of eurhythmia,[3]; 2 mg/kg i.v.,40 min
same,average period of eurhythmia,[3]; 5 mg/kg i.g.,105 min
same,average period of eurhythmia,[3]; 10 mg/kg i.g.,169 min
same,average period of eurhythmia,[3]; 40 mg/kg i.g.,185 min
same,average period of arrhythmia,[1]; 2.5 mg/kg I.V.,5.4 min
same,average prolongation of the refractory time,[2]; 4.0 × 10^-6 g/ml in the bath,44 ms
same,inhibition in vivo at 1 %,rabbit eye; [4],100%
same,Period of Action,rabbit eye; concentration 1.0 %,> 60 min
same,LD50 at 168 h,in vivo,600 mg/kg
"COc1cccc(CC2Cc3ccc(OC)c(O)c3-c3cc(OC)ccc3CCN2C)c1 (single isomer, unassigned; (-)) [Example 2, (-)-6-(3'-Methoxybenzyl)-2,12-dimethoxy-1-hydroxy-7-methyl-5,6;8,9-tetrahydro-7H-dibenz(d,f)azonine]",average period of arrhythmia,[1]; 10 mg/kg I.V.,4.9 min
same,average prolongation of the refractory time,[2]; 8.0 × 10^-6 g/ml in the bath,46 ms
same,inhibition in vivo at 0.1 %,rabbit eye; [5],78%
same,inhibition in vivo at 0.5 %,rabbit eye; [6],100%
same,inhibition in vivo at 1 %,rabbit eye; [4],100%
same,Period of Action,rabbit eye; concentration 0.1 %,46 min
same,Period of Action,rabbit eye; concentration 0.5 %,about 52 Min.
same,Period of Action,rabbit eye; concentration 1.0 %,> 60 min
same,LD50 at 168 h,in vivo,1000 mg/kg
"COc1ccc2c(c1)-c1c(ccc(OC)c1O)CC(Cc1ccc(F)cc1)N(C)CC2 (single isomer, unassigned; (-)) [Example 3, (-)-6-(4'-Fluorobenzyl)-2,12-dimethoxy-1-hydroxy-7-methyl-5,6;8,9-tetrahydro-7H-dibenz(d,f)azonine]",average period of arrhythmia,[1]; 10 mg/kg I.V.,5.4 min
same,average prolongation of the refractory time,[2]; 1.6 × 10^-5 g/ml in the bath,29 ms
same,inhibition in vivo at 0.5 %,rabbit eye; [6],100%
same,Period of Action,rabbit eye; concentration 0.5 %,> 60 min
same,LD50 at 168 h,in vivo,600 mg/kg
"COc1ccc2c(c1)-c1c(ccc(OC)c1O)CC(Cc1ccccc1Cl)N(C)CC2 (single isomer, unassigned; (-)) [Example 4, (-)-6-(2'-Chlorobenzyl)-2,12-dimethoxy-hydroxy-7-methyl-5,6;8,9-tetrahydro-7H-dibenz(d,f)azonine]",average period of eurhythmia,[3]; 4 mg/kg i.v.,68 min
same,average period of eurhythmia,[3]; 40 mg/kg i.g.,91 min
same,average period of eurhythmia,[3]; 60 mg/kg i.g.,103 min
same,average period of eurhythmia,[3]; 80 mg/kg i.g.,139 min
same,average period of arrhythmia,[1]; 5 mg/kg I.V.,4.6 min
same,average period of arrhythmia,[1]; 10 mg/kg I.V.,2.3 min
same,average prolongation of the refractory time,[2]; 1.6 × 10^-5 g/ml in the bath,21 ms
same,LD50 at 168 h,in vivo,1200 mg/kg
"COc1cccc(CC2Cc3ccc(OC)c(OC)c3-c3cc(OC)ccc3CCN2C)c1 (single isomer, unassigned; (-)) [Example 6, (-)-6-(3'-Methoxybenzyl)-7-methyl-5,6;8,9-tetrahydro-1,2,12-trimethoxy-7H-dibenz(d,f)azonine]",average period of arrhythmia,[1]; 4 mg/kg I.V.,4.6 min
same,inhibition in vivo at 1 %,rabbit eye; [4],79%
same,inhibition in vivo at 2 %,rabbit eye; [7],100%
same,Period of Action,rabbit eye; concentration 1.0 %,> 60 min
same,Period of Action,rabbit eye; concentration 2.0 %,> 60 min
same,LD50 at 168 h,in vivo,~300 mg/kg
"COc1cccc(CC2Cc3ccc(OC)c(OC(C)=O)c3-c3cc(OC)ccc3CCN2C)c1 (single isomer, unassigned; (-)) [Example 7, (-)-1-Acetoxy-6-(3'-methoxybenzyl)-7-methyl-5,6;8,9-tetrahydro-2,12-dimethoxy-7H-dibenz(d,f)azonine]",average period of arrhythmia,[1]; 4 mg/kg I.V.,4.1 min
same,average prolongation of the refractory time,[2]; 4.0 × 10^-6 g/ml in the bath,18 ms
same,inhibition in vivo at 0.5 %,rabbit eye; [6],63%
same,inhibition in vivo at 1 %,rabbit eye; [4],100%
same,Period of Action,rabbit eye; concentration 0.5 %,> 60 min
same,Period of Action,rabbit eye; concentration 1.0 %,> 60 min
same,LD50 at 168 h,in vivo,900 mg/kg
"COc1ccc2c(c1)-c1c(ccc(OC)c1OC(C)=O)CC(Cc1ccccc1)N(C)CC2 (single isomer, unassigned; (-)) [Example 8, (-)-1-Acetoxy-6-benzyl-2,12-dimethoxy-7-methyl-5,6;8,9-tetrahydro-7H-dibenz(d,f)azonine]",average period of arrhythmia,[1]; 4 mg/kg I.V.,5.7 min
same,average prolongation of the refractory time,[2]; 4.0 × 10^-6 g/ml in the bath,21 ms
same,inhibition in vivo at 0.5 %,rabbit eye; [6],74%
same,inhibition in vivo at 2 %,rabbit eye; [7],100%
same,Period of Action,rabbit eye; concentration 0.5 %,> 60 min
same,Period of Action,rabbit eye; concentration 2.0 %,> 60 min
same,LD50 at 168 h,in vivo,1200 mg/kg
"COc1ccc2c(c1)-c1c(ccc(OC)c1O)CC(Cc1c(Cl)cccc1Cl)N(C)CC2 (single isomer, unassigned; (-)) [Example 11, (-)-6-(2',6'-Dichlorobenzyl)-2,12-dimethoxy-7-methyl-1-hydroxy-5,6;8,9-tetrahydro-7H-dibenz(d,f)azonine]",average period of arrhythmia,[1]; 8 mg/kg I.V.,7.7 min
same,antiarrhythmic action / period of arrhythmia (in words),[1]; in comparison with control animals or procainamide,just as good
same,average prolongation of the refractory time,[2]; 3.2 × 10^-5 g/ml in the bath,29 ms
same,inhibition in vivo at 1 %,rabbit eye; [4],55%
same,inhibition in vivo at 2 %,rabbit eye; [7],100%
same,Period of Action,rabbit eye; concentration 1.0 %,> 60 min
same,Period of Action,rabbit eye; concentration 2.0 %,> 60 min
same,LD50 at 168 h,in vivo,> 1600 mg/kg
"COc1ccc2c(c1)-c1c(ccc(OC)c1O)CC(Cc1cccc(C)c1)N(C)CC2 (single isomer, unassigned; (-)) [Example 12, (-)-6-(3'-Methylbenzyl)-2,12-dimethoxy-7-methyl-1-hydroxy-5,6;8,9-tetrahydro-7H-dibenz(d,f)azonine]",average period of arrhythmia,[1]; 5 mg/kg I.V.,6.4 min
same,average prolongation of the refractory time,[2]; 6.4 × 10^-5 g/ml in the bath,51 ms
same,inhibition in vivo at 0.1 %,rabbit eye; [5],68%
same,inhibition in vivo at 0.25 %,"rabbit eye; Oryctolagus cuniculus, topical, concentration 0.25 %",100%
same,Period of Action,rabbit eye; concentration 0.1 %,about 56 Min.
same,Period of Action,rabbit eye; concentration 0.25 %,> 60 min
same,LD50 at 168 h,in vivo,1200 mg/kg
"CC[C@H]1[C@@H]2C[C@H]3[C@@H]4N(C)c5ccccc5[C@]45C[C@@H]([C@H]2[C@H]5O)N3[C@@H]1O [Ajmaline, ajmaline, reference compound]",average prolongation of the refractory time,[2]; 1.6 × 10^-5 g/ml in the bath,16 ms
"COc1ccc2c(c1)-c1c(ccc(OC)c1O)CC(Cc1ccccc1)NCC2 (stereo not drawn) [Example 9, 6-Benzyl-2,12-dimethoxy-1-hydroxy-5,6;8,9-tetrahydro-7H-dibenz(d,f)azonine]",average period of arrhythmia,[1]; 5 mg/kg I.V.,6.8 min
same,average prolongation of the refractory time,[2]; 1.6 × 10^-5 g/ml in the bath,27 ms
"COc1ccc(CCN(C)CCCC(C#N)(c2ccc(OC)c(OC)c2)C(C)C)cc1OC (stereo not drawn) [Verapamil, verapamil, reference compound]",average prolongation of the refractory time,[2]; 1.6 × 10^-5 g/ml in the bath,16 ms
"O=C1NC(=O)C(c2ccccc2)(c2ccccc2)N1 [phenytoin, reference compound]",average period of arrhythmia,[1]; 20 mg/kg I.V.,16.5 min
same,average prolongation of the refractory time,[2]; 1.6 × 10^-5 g/ml in the bath,-6 ms
"CCCCNc1ccc(C(=O)OCCN(C)C)cc1 [tetracaine, reference compound]",inhibition in vivo at 0.1 %,rabbit eye; [5],100%
same,Period of Action,rabbit eye; concentration 0.1 %,about 44 Min.
same,duration of maximum activity strength,rabbit eye; concentration not given there,44 min
same,maximum activity strength,rabbit eye; concentration not given there,100%
